Test results: ChEMBL document CHEMBL1201862, “PubChem BioAssay data set” (2004)
The source made the active and inactive calls.

Columns and labels:
[1] = inhibitors of intracellular T. cruzi replication, confirmation, NIH3T3 host cells, beta-gal luminescence (AID 2044); type: functional, cell-based;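 also: intracellular parasites grown in NIH/3T3 mouse fibroblasts as host cells; luminescent beta-galactosidase reporter signal from transgenic T. cruzi replicating inside host cells; inhibitors lower the luminescence signal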
[2] = cytotoxicity toward NIH3T3 fibroblasts, dose response, counter-screen, cell-based, ATP luminescence, mouse fibroblasts (AID 2010); type: functional;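 also: cells exposed to compound for about 90 hours before reading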
[3] = test system: Streptococcus; assay: Group A Streptococcus viability loss, dose response, counter-screen for streptokinase expression inhibitor project, luminescence, BacTiterGlo (AID 1915); type: functional, organism-based;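 also: potency for reduction of bacterial viability or growth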
[4] = target: T1, Streptokinase A (Streptococcus pyogenes serotype M1, UniProt P10520); assay: S. pyogenes streptokinase expression inhibitors, potency, dose response, plasminogen activation absorbance, OD405 (AID 1914); type: functional, Streptococcus pyogenes M1 GAS;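 also: secreted streptokinase activity via plasminogen activation per viability signal from cell pellet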
T1 sequence (P10520 whole entry): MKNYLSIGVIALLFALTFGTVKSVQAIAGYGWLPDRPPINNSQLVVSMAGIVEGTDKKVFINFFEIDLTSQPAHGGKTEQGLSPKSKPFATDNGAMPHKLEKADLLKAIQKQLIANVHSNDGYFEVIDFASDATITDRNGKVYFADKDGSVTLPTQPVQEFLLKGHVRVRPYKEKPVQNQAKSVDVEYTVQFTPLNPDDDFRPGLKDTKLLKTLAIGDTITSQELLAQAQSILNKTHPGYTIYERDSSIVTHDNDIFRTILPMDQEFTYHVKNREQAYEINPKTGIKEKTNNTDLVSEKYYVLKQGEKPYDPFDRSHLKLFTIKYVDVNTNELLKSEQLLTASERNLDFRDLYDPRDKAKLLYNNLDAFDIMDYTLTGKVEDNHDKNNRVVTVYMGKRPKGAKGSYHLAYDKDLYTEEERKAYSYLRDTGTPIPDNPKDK

[5] = test system: Streptococcus sp. 'group A'; assay: growth inhibition of control SK(-) GAS strain, dose response, counter-screen for streptokinase expression inhibitor project, luminescence, kanamycin, BacTiterGlo, confirmation (AID 1900); type: functional, organism-based
[6] = target: Cytochrome P450 2C9 (Homo sapiens, UniProt P11712)
Chain of Cytochrome P450 2C9 (P11712 whole entry): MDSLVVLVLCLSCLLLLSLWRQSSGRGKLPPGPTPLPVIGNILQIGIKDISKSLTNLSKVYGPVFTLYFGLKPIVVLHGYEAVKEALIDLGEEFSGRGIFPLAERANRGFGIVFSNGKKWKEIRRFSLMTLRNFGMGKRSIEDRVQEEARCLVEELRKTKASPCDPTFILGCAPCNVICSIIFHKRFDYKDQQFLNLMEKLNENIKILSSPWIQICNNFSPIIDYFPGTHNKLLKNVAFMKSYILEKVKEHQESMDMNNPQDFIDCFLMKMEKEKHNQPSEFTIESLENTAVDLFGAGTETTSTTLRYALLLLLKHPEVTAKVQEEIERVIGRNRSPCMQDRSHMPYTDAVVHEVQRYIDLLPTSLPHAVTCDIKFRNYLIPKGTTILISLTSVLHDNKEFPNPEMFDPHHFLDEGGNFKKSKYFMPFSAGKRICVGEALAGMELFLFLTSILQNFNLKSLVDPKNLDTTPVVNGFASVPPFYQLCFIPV

[7] = target: T2, Cytochrome P450 1A2 (Homo sapiens, UniProt P05177);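 also: PubChem cytochrome P450 panel assay, CYP1A2 panel member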
T2 sequence (P05177 whole entry): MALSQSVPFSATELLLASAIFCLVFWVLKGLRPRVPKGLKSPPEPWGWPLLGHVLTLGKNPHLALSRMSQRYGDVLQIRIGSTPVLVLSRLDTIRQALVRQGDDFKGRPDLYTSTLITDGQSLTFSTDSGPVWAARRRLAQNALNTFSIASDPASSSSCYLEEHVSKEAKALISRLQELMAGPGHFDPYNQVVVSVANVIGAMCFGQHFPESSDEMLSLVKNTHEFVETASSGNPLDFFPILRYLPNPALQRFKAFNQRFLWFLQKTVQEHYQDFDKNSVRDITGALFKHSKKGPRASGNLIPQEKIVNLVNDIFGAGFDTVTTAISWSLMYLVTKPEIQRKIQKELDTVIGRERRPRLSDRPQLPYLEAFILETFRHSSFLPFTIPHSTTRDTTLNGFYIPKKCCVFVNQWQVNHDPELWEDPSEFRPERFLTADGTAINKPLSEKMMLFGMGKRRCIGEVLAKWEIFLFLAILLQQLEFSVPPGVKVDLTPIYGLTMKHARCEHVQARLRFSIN

[8] = target: Cytochrome P450 2C19 (Homo sapiens, UniProt P33261); assay: Cytochrome panel assay with activity outcomes. Panel member name: p450-cyp2c19 Compounds with AC50 equal or less than 10 uM are considered active; type: functional
Chain of Cytochrome P450 2C19 (P33261 whole entry): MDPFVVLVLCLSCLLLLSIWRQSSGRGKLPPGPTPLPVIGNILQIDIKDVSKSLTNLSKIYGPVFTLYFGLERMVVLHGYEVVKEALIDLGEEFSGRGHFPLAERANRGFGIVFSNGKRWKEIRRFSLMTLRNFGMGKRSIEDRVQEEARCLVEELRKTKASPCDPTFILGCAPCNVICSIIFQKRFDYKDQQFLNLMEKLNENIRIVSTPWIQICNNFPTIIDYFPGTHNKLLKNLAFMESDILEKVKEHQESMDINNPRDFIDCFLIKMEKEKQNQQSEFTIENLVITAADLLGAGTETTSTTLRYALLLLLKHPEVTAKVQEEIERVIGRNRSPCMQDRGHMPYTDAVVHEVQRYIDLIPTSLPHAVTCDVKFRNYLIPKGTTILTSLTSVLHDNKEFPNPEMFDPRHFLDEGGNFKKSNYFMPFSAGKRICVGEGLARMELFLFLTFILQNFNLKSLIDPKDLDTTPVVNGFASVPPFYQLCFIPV

[9] = target: T3, Rac GTPase-activating protein 1 (Homo sapiens, UniProt Q9H0H5); assay: MgcRacGAP GTPase-activating activity inhibitors, confirmation, biochemical, ADP Hunter fluorescence, primary and confirmatory (AID 624330); type: functional
T3 sequence (Q9H0H5 whole entry): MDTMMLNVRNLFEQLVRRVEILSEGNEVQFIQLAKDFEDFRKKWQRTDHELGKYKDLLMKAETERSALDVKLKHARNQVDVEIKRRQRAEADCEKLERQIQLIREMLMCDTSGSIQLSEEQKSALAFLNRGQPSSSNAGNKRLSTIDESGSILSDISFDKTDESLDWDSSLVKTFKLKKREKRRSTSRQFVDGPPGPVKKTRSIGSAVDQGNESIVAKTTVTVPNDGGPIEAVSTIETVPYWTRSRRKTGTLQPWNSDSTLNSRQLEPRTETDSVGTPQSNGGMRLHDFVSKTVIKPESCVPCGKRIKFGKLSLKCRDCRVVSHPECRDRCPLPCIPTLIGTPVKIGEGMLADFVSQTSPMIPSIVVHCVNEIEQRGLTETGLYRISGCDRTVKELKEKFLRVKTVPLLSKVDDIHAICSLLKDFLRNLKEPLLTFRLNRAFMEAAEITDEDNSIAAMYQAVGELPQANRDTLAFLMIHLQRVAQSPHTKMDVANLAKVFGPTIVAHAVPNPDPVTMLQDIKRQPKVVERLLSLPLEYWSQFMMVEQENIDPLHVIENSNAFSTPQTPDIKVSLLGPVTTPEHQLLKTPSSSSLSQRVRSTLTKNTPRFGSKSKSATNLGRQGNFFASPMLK

[10] = inhibitors of SNCA 5'UTR-driven reporter translation, confirmation, H4 neuroglioma cells, luminescence (AID 1988); type: functional, cell-based
[11] = inhibitors of firefly luciferase expression or activity, dose response, H4 neuroglioma cells, luminescence (AID 1990); type: functional, cell-based

SMILES: COc1ccc(C2CC(c3ccccc3)=NN2C(=O)COC(=O)c2cccc(S(=O)(=O)N3CCOCC3)c2)cc1 (centres undefined)
- EC50 [1]: 3.37 µM (active)
- EC50 [2]: > 30 µM (not active)

SMILES: CC(C)C[C@H](NC(=O)c1[nH]cnc1C(=O)N1CCc2ccccc2C1)C(=O)OCc1ccccc1
- EC50 [3]: > 150 µM (not active)
- EC50 [4]: > 150 µM (not active)
- EC50 [5]: 9.76 µM (active)

SMILES: CC(=O)CSc1nnc(Cc2ccc([N+](=O)[O-])cc2)o1
- AC50 [6]: 35.5 µM (inconclusive)
- AC50 [7]: 15.8 µM (inconclusive)

SMILES: CCC(C)(C)n1nnnc1C(c1cccc(C#N)c1)N1CCN(c2cc(C)ccc2C)CC1 (centres undefined)
- EC50 [1]: 1.73 µM (active)
- EC50 [2]: 32.6 µM (active)

SMILES: CN(C)C(=O)c1ccc(-c2ccc3ncnc(NC4CCNCC4)c3c2)cc1
- AC50 [7]: 20 µM (inconclusive)

SMILES: CN1CCN(c2ncc3nc(-c4ccccc4)c(=O)n(Cc4ccc(F)cc4)c3n2)CC1
- AC50 ([8]; read-out: AC50): 39.8 µM (inconclusive)

SMILES: Cc1ccc(NCc2ccccc2O)cc1C
- IC50 [9]: 118 µM (active)

SMILES: CN(C)CCN(C(=O)c1ccc(S(=O)(=O)N2CCCC2)cc1)c1nc2ccc(Br)cc2s1
- EC50 [1]: 0.122 µM (active)
- EC50 [2]: > 30 µM (not active)

SMILES: CCOC(=O)CSc1nnc(CNC(=O)c2ccc(OC)cc2)n1C1CCCCC1
- AC50 ([8]; read-out: AC50): 10 µM (inconclusive)
- AC50 [7]: 5.01 µM (inconclusive)

SMILES: Cc1sc2nc(CN3CCOCC3)nc(N3CCOCC3)c2c1C
- IC50 [9]: 191 µM (active)

SMILES: CC(=O)N(CCC(Cc1ccccc1)c1ccc2c(c1)OCO2)Cc1ccc(Cl)cc1 (centres undefined)
- EC50 [3]: 12.4 µM (active)
- EC50 [4]: 58.5 µM (active)
- EC50 [5]: 7.09 µM (active)

SMILES: Cc1ccccc1N=C(S)N1CCCC(c2nc3ccccc3[nH]2)C1 (centres undefined)
- EC50 [1]: 1.28 µM (active)
- EC50 [2]: > 60 µM (not active)

SMILES: Cn1cc(-c2nc3cnc(Oc4ccccc4)nc3n(Cc3cccs3)c2=O)c2ccccc21
- AC50 [7]: 3.16 µM (inconclusive)

SMILES: Cc1ccc(-c2cc(C(=O)N3CCN(c4ccccc4O)CC3)c3ccccc3n2)cc1
- EC50 [3]: 26.4 µM (active)
- EC50 [4]: > 150 µM (not active)
- EC50 [5]: 5.39 µM (active)

SMILES: OC[C@@H](O)[C@@H](O)[C@@H](O)[C@@H](O)c1nc2cc(Cl)ccc2[nH]1
- AC50 [7]: 6.31 µM (inconclusive)

SMILES: CN/C(=N/c1cc(Cl)ccc1Cl)SC1CC(=O)N(c2ccc(C(=O)OC)cc2)C1=O (centres undefined)
- EC50 [4]: > 50 µM (not active)

SMILES: Cc1cccc(C(=O)NCC(=O)N2CCOCC2)c1
- EC50 [3]: > 150 µM (not active)
- EC50 [4]: > 150 µM (not active)
- EC50 [5]: > 150 µM (not active)

SMILES: O=C(COc1ncnc2cc([N+](=O)[O-])ccc12)NC(=O)NC1CCCCC1
- EC50 [1]: 0.122 µM (active)
- EC50 [2]: > 60 µM (not active)

SMILES: COc1ccc(NC(=O)c2cc(-c3cc(C)cc(C)c3O)[nH]n2)cc1Cl
- EC50 [3]: 3.07 µM (active)
- EC50 [5]: 2.41 µM (active)

SMILES: CCC(CC)NC(=O)c1oc2ccccc2c1COc1ccccc1
- EC50 [3]: 17 µM (active)
- EC50 [4]: 10.6 µM (active)
- EC50 [5]: 9.43 µM (active)

SMILES: O=C(c1cccc(F)c1)N1CCC2(CCCN(c3ccccc3)C2)CC1
- AC50 [7]: 15.8 µM (inconclusive)

SMILES: O=C(/C=C(\c1ccc(Cl)cc1)n1cncn1)c1ccc(Cl)cc1
- EC50 [1]: 0.475 µM (active)
- EC50 [2]: > 60 µM (not active)

SMILES: Cc1ccccc1OCC(O)Cn1c(NCc2ccccc2)nc2c1c(=O)[nH]c(=O)n2C (centres undefined)
- AC50 [6]: 5.62 µM (inconclusive)

SMILES: O=C(CC(C(=O)N1CCc2ccccc21)n1ccnc1)N1CCc2ccccc2C1 (centres undefined)
- EC50 [1]: 0.276 µM (active)
- EC50 [2]: 11.5 µM (active)

SMILES: COc1ccc(C2=NCC(CSc3nnc(-c4ccc5c(c4)OCO5)o3)S2)cc1 (centres undefined)
- EC50 [1]: 0.62 µM (active)
- EC50 [2]: > 60 µM (not active)

SMILES: Cc1ccc(Cn2cccc(NC(=O)NC3CCCCC3)c2=O)cc1
- AC50 [6]: 2.51 µM (inconclusive)
- AC50 [7]: 15.8 µM (inconclusive)

SMILES: COc1cc(/C=C/CN2CCN(Cc3ccc(C)o3)C(CCO)C2)ccc1O (centres undefined)
- IC50 [9]: 363 µM (active)

SMILES: COc1ccc(OC)c2c(C)c(C)[nH]c12
- IC50 [9]: 29.5 µM (active)

SMILES: CCn1ncc(C(=O)Nc2cc(C)on2)c1C
- AC50 ([8]; read-out: AC50): 15.8 µM (inconclusive)
- AC50 [7]: 15.8 µM (inconclusive)

SMILES: COC(=O)[C@@]1(Cc2ccc(F)cc2)[C@H]2c3cc(C(=O)N4CCCC4)n(CCO)c3C[C@H]2CN1C(=O)c1ccccc1
- AC50 ([8]; read-out: AC50): 39.8 µM (inconclusive)
- AC50 [7]: 25.1 µM (inconclusive)

SMILES: CC1CC(C)(C)Nc2ccc(N=O)cc21 (centres undefined)
- EC50 [1]: 2.29 µM (active)
- EC50 [2]: 3.13 µM (active)

SMILES: COc1ccc2[nH]c(C(=O)N3CCCN(Cc4ccc(F)cc4)CC3)cc2c1
- EC50 [1]: 0.23 µM (active)
- EC50 [2]: > 60 µM (not active)

SMILES: Cc1cccc(CN2CCN(C(C)C(=O)NC(C)c3ccccc3)CC2)c1 (centres undefined)
- IC50 [9]: 84.2 µM (active)

SMILES: Cc1ccc(-c2cc3nc(-c4ccc(Br)cc4)cc(N)n3n2)cc1
- EC50 [3]: 1.06 µM (active)
- EC50 [5]: 1.59 µM (active)

SMILES: Nc1ccccc1Nc1cc(-c2cccc(Cl)c2)nn1-c1ccccc1
- EC50 [1]: 4.26 µM (active)
- EC50 [2]: > 60 µM (inconclusive)

SMILES: CS(=O)(=O)Nc1cccc(-c2nc(NCc3cccs3)c3ccccc3n2)c1
- AC50 [6]: 1.26 µM (inconclusive)

SMILES: O=c1c(-c2cc(F)cc(F)c2)nc2cnc(Oc3ccccc3)nc2n1C1CC1
- AC50 [6]: 10 µM (inconclusive)

SMILES: COC(=O)[C@@H]1[C@@H](O)[C@]2(O)c3ccccc3O[C@]2(c2ccccc2)[C@H]1c1ccccc1
- AC50 ([8]; read-out: AC50): 0.316 µM (inconclusive)
- AC50 [6]: 0.0794 µM (inconclusive)

SMILES: CCn1c(SCc2ccc(C)cc2)nnc1-c1nn(-c2ccccc2)ccc1=O
- AC50 [8]: inconclusive

SMILES: CCN(CC)c1ccc(/C=C2/C(=O)NC(=O)N(Cc3ccco3)C2=O)cc1
- IC50 [9]: 126 µM (active)

SMILES: O=c1c(-c2cc(F)cc(F)c2)nc2cnc(N3CCOCC3)nc2n1CCc1ccccc1
- AC50 [7]: 2.51 µM (inconclusive)

SMILES: O=C(CN1CCN(c2ccc(O)cc2)CC1)Nc1ccccc1C(=O)NCCc1ccccc1
- IC50 [9]: 41.5 µM (active)

SMILES: Cc1ccc2cc3c(N)c(C(=O)N4CC(=O)Nc5ccccc54)sc3nc2c1
- EC50 [10]: < 0.1 µM (active)
- EC50 [11]: < 0.1 µM (active)

SMILES: Cc1nc(N2CCCCC2)c2c(C)c(C(=O)Nc3cccc(C(F)(F)F)c3)sc2n1
- EC50 [1]: 1.54 µM (active)
- EC50 [2]: > 60 µM (not active)

SMILES: COc1ccc(N[C@@H]2CCN3C(=O)c4ccccc4[C@@H]3C[C@H]2O)cc1
- IC50 [9]: 74.8 µM (active)

SMILES: Cc1ccc(OC(=O)N2CCOCC2)cc1
- AC50 ([8]; read-out: AC50): 28.2 µM (inconclusive)
- AC50 [6]: 39.8 µM (inconclusive)
- AC50 [7]: 17.8 µM (inconclusive)

SMILES: O=C(NC(=S)N1CCN(c2ccc(O)cc2)CC1)c1ccco1
- IC50 [9]: 33.1 µM (active)

SMILES: Cc1nc(C/C(=N\N)c2ccc(O)cc2O)cs1
- IC50 [9]: 64 µM (active)

SMILES: COc1cc(/C=C\c2ccc(OC)cc2OC)cc(OC)c1
- AC50 [8]: inconclusive

SMILES: Cc1ccc(CONC(=O)/N=C/N(C)C)cc1
- AC50 [7]: 28.2 µM (inconclusive)

SMILES: O=C1c2ccccc2NC(c2ccc(O)cc2)N1/N=C/c1ccc(O)cc1 (centres undefined)
- IC50 [9]: 66.4 µM (active)
